Tests used:
[1] = tested on: cochlear blood flow; set-up: method as in PMID 25014609; settings: guinea pig model ref 29; cited from earlier work
[2] = Plasma pharmacokinetics of betahistine and 2-PAA after oral dosing in UVN cats (LC-MS/MS, non-compartmental analysis); assay type: in vivo, cat; settings: days 1 and 21
Method: The experiments were performed on nine adult male UVN cats randomly allocated into three groups of cats. Three groups of three adult male cats received 0.2 mg/kg betahistine (N = 3: cats 1–3), 2 mg/kg betahistine (N = 3: cats 4–6), or 0.2 mg/kg betahistine plus 1 mg/kg selegiline (N = 3: cats 7–9). […] The samples were frozen at −80°C until analysis. Pharmacokinetic parameters of betahistine and its major metabolite 2-PAA were calculated by applying non-compartmental analysis.
Betahistine and its internal standard, betahistine-d3, were extracted by liquid/liquid extraction from plasma under alkaline conditions toward 1-butanol/isooctane, followed by a second liquid/liquid extraction step of acidic 1-butanol/isooctane toward water. Betahistine concentration in plasma was analyzed using a validated LC-MS/MS method. In brief, an API 4000 (Applied Biosystems) mass spectrometer coupled with a Symbiosis HPLC system (Sparks, Emmen, The Netherlands) was employed to analyze betahistine. Extracts (100 μl) were injected into a XTerra RP18 150 ^* 4.6 mm, 3.5 μm column (Waters, Etten-Leur, The Netherlands) and separated at 30°C under isocratic conditions using an aqueous metanol solution containing 0.5 mM ammonium formate as mobile phase. Betahistine was quantified by a tandem mass spectrometer in positive MRM. Parent daughter transition was followed for betahistine (m/z 137 > 94). Betahistine-d3 dihydrochloride was used as internal standard. Pharmacokinetic parameters of betahistine were calculated by applying non-compartmental analysis using the validated PK software WinNonLin, version 5.23 (Pharsight Corporation, Mountain View, CA, USA).
Cmax and tmax were derived directly from the plasma concentration-time curves. Linear trapezoidal rule was used to calculate AUC0-t during the part of the curve with increasing plasma concentrations. For the descending part of the curve, the log-linear trapezoidal rule was used. Calculation of the elimination half-life (t1/2) was evaluated as ln 2/kel, with kel as the slope of the terminal phase of the plasma concentration-time curve.

Compound | Increase in cochlear blood flow [1] | Effect of selegiline co-administration on 2-PAA Cmax-values [2]
NCCc1ccccn1 [aminoethylpyridine] | observed | –
O=C(O)Cc1ccccn1 [2-PAA, 2-pyridylacetic acid] | not | strongly reduced
OCCc1ccccn1 [hydroxyethylpyridine] | observed | –

From publication PMC6005348, “Betahistine Treatment in a Cat Model of Vestibular Pathology: Pharmacokinetic and Pharmacodynamic Approaches” (Frontiers in Neurology, 2018)
